We go through 7 compounds from patent US5807851A, “2,3-Benzodiazepine Derivatives as non-competitive AMPA” (Egis Gyogyszergyar Rt., priority 1997, dated 1998).

The term IC50 denotes the point on the concentration scale where inhibition reaches its midpoint. High values mean weaker potency in that assay, low ones greater potency in that assay.

This test has as its system AMPA receptor. The test can be described thus: In vitro kainate antagonistic activity: retinal spreading depression on isolated chicken retina. The settings on record: isolated chicken retina preparations; spreading depression developed with 5 microM of kainate; at least 3 concentrations. It is filed as cell-based. The procedure: Antagonizing the effect of kainate (in vitro test)
The in vitro activity of the compounds was determined on isolated chicken retina preparations /M. J. Sheardown, Brain Res., 607, 189 (1993)/. The spreading depression was developped with 5 microM of kainate (the chemical name of kainic acid is 2-carboxy-4-isopropenyl-3-pyrrolidine-acetic acid), and the IC50 values were determined according to Sheardown. The compounds were tested in at least 3 concentrations. Compounds having AMPA antagonistic activity inhibit the response to the kainate having AMPA receptor agonistic activity, and the inhibition obtained depends on the concentration of the compounds.

Compound `CC(=O)N1N=C(c2ccc(N)cc2)c2ccc(Cl)cc2CC1C` (stereo not shown) [Example 2, 3-Acetyl-1-(4-aminophenyl)-7-chloro-4-methyl-4,5-dihdyro-3H-2,3-benzodiazepine] displayed an IC50 of 3.2 µM.

`CNC(=O)N1N=C(c2ccc(N)cc2)c2ccc(Cl)cc2CC1C` (stereo not shown) [Example 4, 1-(4-Aminophenyl)-7-chloro-4-methyl-3-(methylcarbamoyl)-4,5-dihydro-3H-2,3-benzodiazepine] had a half-inhibitory concentration (IC50) of 3.6 µM.

With `CC1=NN=C(c2ccc(N)cc2)c2cc3c(cc2C1)OCO3` [A, reference compound], the IC50 was 9.5 µM.

For the compound `CNC(=O)N1N=C(c2ccc(N)cc2)c2cc(Cl)c(Cl)cc2CC1C` (stereo not shown) [Example 12, 1-(4-Aminophenyl)-7,8-dichloro-4-methyl-3-methylcarbamoyl-4,5-dihydro-3H-2,3-benzodiazepine], the IC50 is 1.2 µM.

Regarding `CNC(=O)N1N=C(c2ccc(N)cc2)c2cc(Cl)ccc2CC1C` (stereo not shown) [Example 8, 1-(4-Aminophenyl)-8-chloro-4-methyl-3-methylcarbamoyl-4,5-dihydro-3H-2,3-benzodiazepine], 4.6 µM corresponded to half-maximal inhibition (IC50).

Take `CC(=O)N1N=C(c2ccc(N)cc2)c2cc(Cl)c(Cl)cc2CC1C` (stereo not shown) [Example 10, 3-Acetyl-1-(4-aminophenyl)-7,8-dichloro-4-methyl-4,5-dihydro-3H-2,3-benzodiazepine]: the IC50 turned out to be 2.5 µM.

In the case of `CC(=O)N1N=C(c2ccc(N)cc2)c2cc(Cl)ccc2CC1C` (stereo not shown) [Example 6, 3-Acetyl-1-(4-aminophenyl)-8-chloro-4-methyl-4,5-dihydro-3H-2,3-benzodiazepine], 8.2 µM corresponded to half-maximal inhibition (IC50).
